In patent US20230414509A1, “HYDROPHOBIC DRUGS IN ORGANIC CORE HIGH DENSITY LIPOPROTEIN (HDL) NANOPARTICLES” (NORTHWESTERN UNIVERSITY, priority 2020, published 2023):

Key:
[1] = test system: HH cell line (SR-B1 positive); experiment: 2 hr pulse treatment, MTS viability, SR-B1 positive HH cell line; format: cell-based; conditions: free F7 250 nM or 2.5 μM for 2 hrs, washed, 72 hours, MTS assay
Method: (§1) Following treatment, the cells were washed with fresh media and plated into 96-well plates. The cells were then incubated for 72 hours prior to viability assay (MTS assay).

[2] = test system: LnCap WT cells (prostate cancer); experiment: Cytotoxicity IC50, MTS assay, LnCap WT cells; format: cell-based; conditions: Homo sapiens, 72 hours after treatment, read-out: IC-50 values (in nM), LnCap WT
Method: (§2) Specifically, the F7-loaded HDL NPs were tested for cytoxicity against two CTCL cell lines (HH and Hut78), a clear cell renal cell carcinoma cell line (786-O), an anaplastic large cell lymphoma (ALCL) cell line (SR-786), a breast adenocarcinoma cell line (MDA MB 231), a T-cell lymphoma cell line (Jurkat), a myeloma cell line (U266B1), and six prostate cancer cell lines (PC-3, Du-145, CWRR1 WT (wild-type), CWRR1 EnzR (Enzalutamide resistant), LnCap WT (wild type), and LnCap EnzR (Enzalutamide resistant)). The HH and HuT78 cell lines are SR-B1 positive and express p38γ. The SR-786, 786-O, and MDA MB 231 cell lines are also known to be SR-B1 positive. […] The PC-3 and Du-145 cell lines are SR-B1 positive, androgen receptor negative and PTEN null. The CWRR1 WT cell line is SR-B1 positive, androgen receptor positive and PTEN wild type. The CWRR1 EnzR, which is also SR-B1 positive, androgen receptor positive and PTEN wild type, is a prostate cancer cell line derived from patient with castration recurrent disease that is resistant to enzalutamide (a commonly used therapy for castration-resistant prostate cancer patients). The LnCap WT cell line is SR-B1 positive, androgen receptor positive and PTEN null. The LnCap EnzR, which is also SR-B1 positive, androgen receptor positive and PTEN null, is a prostate cancer cell line derived from a lymph node metastasis that is resistant to enzalutamide. […]

780 cells (renal cancer) = experiment: Cytotoxicity IC50 in renal cancer cell line 780; format: cell-based
Method: (§3) A database analysis was performed and a survival curve for the renal cancer was found showing a separation (p=0.000084) among summarized 877 renal cancer patients by p38γ gene expression level (high vs low). […] All 8 renal cancer cell lines have higher p38γ protein expression level than that of normal HK2 renal cells by western blot experiments (FIG. 3B).

[3] = test system: MDA MB 231 cells (breast adenocarcinoma); experiment: Cytotoxicity IC50, MTS assay, MDA MB 231 cells; format: cell-based; conditions: Homo sapiens, 72 hours after treatment, read-out: IC-50 values (in nM), MDA MB 231
Method: as §2

[4] = test system: LnCap EnzR cells (prostate cancer, Enzalutamide resistant); experiment: Cytotoxicity IC50, MTS assay, LnCap EnzR cells; format: cell-based; conditions: Homo sapiens, 72 hours after treatment, read-out: IC-50 values (in nM), LnCap EnzR
Method: as §2

HepG2 cells = experiment: Cell-based toxicity screen, HepG2 cells, MTS viability; conditions: F7 1 μM for 2 hrs, washed, 72 hours, MTS assay
[5] = test system: CWRR1 EnzR cells (prostate cancer, Enzalutamide resistant); experiment: Cytotoxicity IC50, MTS assay, CWRR1 EnzR cells; format: cell-based; conditions: 72 hours after treatment, read-out: IC-50 values (in nM), CWRR1 EnzR
Method: as §2

[6] = test system: HH cells (cutaneous T cell lymphoma); experiment: Cytotoxicity IC50, MTS assay, HH cells; format: cell-based; conditions: Homo sapiens, 72 hours after treatment, read-out: IC-50 values (in nM), HH
Method: as §2

[7] = test system: Jurkat cells (T-cell lymphoma); experiment: Cytotoxicity IC50, MTS assay, Jurkat cells; format: cell-based; conditions: Homo sapiens, Jurkat cells (SR-B1 negative), 72 hours after treatment, read-out: IC-50 values (in nM), Jurkat
Method: as §2

[8] = test system: ACHN cells (renal cancer); experiment: Cytotoxicity IC50 in renal cancer cell line ACHN; format: cell-based; conditions: Homo sapiens
Method: as §3

[9] = test system: 786-O cells (clear cell renal cell carcinoma); experiment: Cytotoxicity IC50, MTS assay, 786-O cells; format: cell-based; conditions: Homo sapiens, 786-0, 72 hours after treatment, read-out: IC-50 values (in nM), 786-O
Method: as §2

[10] = test system: PC-3 cells (prostate cancer); experiment: Cytotoxicity IC50, MTS assay, PC-3 cells; format: cell-based; conditions: Homo sapiens, 72 hours after treatment, read-out: IC-50 values (in nM), PC-3
Method: as §2

Hut78 cells = experiment: Cytotoxic impact of F7 on Hut78 cells (screening); format: cell-based; conditions: Homo sapiens
Text: Cutaneous T cell lymphoma (CTCL) is a disfiguring and aggressive cancer. For patients with advanced disease, current therapies are inadequate, and outcome is poor. Incomplete understanding of CTCL molecular regulators has limited development of effective targeted therapies. One candidate regulator is p38gamma (p38γ), a mitogen-activated protein kinase downstream from the T cell receptor that is crucial for T cell activity and growth. […] In addition, only p38γ has been identified as essential protein for CTCL growth among the four p38 isoforms by gene knockdown experiments, which makes p38γ an ideal target for the therapeutic drug development in this particular T cell lymphoma.

U266B1 cells (myeloma) = experiment: Cytotoxicity IC50, MTS assay, U266B1 cells; format: cell-based; conditions: U266B1 cells (SR-B1 negative), 72 hours after treatment, read-out: IC-50 values (in nM), U266B1
Method: as §2

[11] = test system: SR-786 cells (anaplastic large cell lymphoma); experiment: Cytotoxicity IC50, MTS assay, SR-786 cells; format: cell-based; conditions: 72 hours after treatment, read-out: IC-50 values (in nM), SR-786
Method: as §2

[12] = test system: HuT78 cells (cutaneous T cell lymphoma); experiment: Cytotoxicity IC50, MTS assay, HuT78 cells; format: cell-based; conditions: Homo sapiens, 72 hours after treatment, read-out: IC-50 values (in nM), HuT78
Method: as §2

[13] = test system: U266B1 cell line (SR-B1 negative); experiment: 2 hr pulse treatment, MTS viability, SR-B1 negative U266B1 cell line; format: cell-based; conditions: free F7 250 nM or 2.5 μM for 2 hrs, washed, 72 hours, MTS assay
Method: as §1

[14] = test system: Du-145 cells (prostate cancer); experiment: Cytotoxicity IC50, MTS assay, Du-145 cells; format: cell-based; conditions: Homo sapiens, 72 hours after treatment, read-out: IC-50 values (in nM), Du-145
Method: as §2

[15] = test system: CWRR1 WT cells (prostate cancer); experiment: Cytotoxicity IC50, MTS assay, CWRR1 WT cells; format: cell-based; conditions: 72 hours after treatment, read-out: IC-50 values (in nM), CWRR1 WT
Method: as §2

With `Cc1ccc([N+](=O)[O-])cc1S(=O)(=O)N(C)/N=C/c1cnc2ccc(Br)cn12.Cl` [F7, PIK75] the “cytotoxicity, HH cell line, free F7” value [1] was “unable to cause cytotoxicity”, the IC50 [2] was 53 nM and the IC50 (780 cells (renal cancer)) was 33 nM. For the same molecule, the IC50 [3] was 688 nM, the IC50 [4] was 75.5 nM and the “cytotoxicity, HepG2 cells, free F7” value (HepG2 cells) was “mild levels of cytotoxicity”. For the same molecule, the IC50 [5] was 24.7 nM, the IC50 [6] was 41.3 nM and the IC50 [7] was 116 nM. It also gave an IC50 [8] of 17 nM, an IC50 [9] of 283 nM and an IC50 [10] of 28.1 nM. For the same molecule, the IC50 (Hut78 cells) was 33 nM, the IC50 (U266B1 cells (myeloma)) was 44.1 nM and the IC50 [11] was 12.6 nM. For the same molecule, the IC50 [12] was 45.6 nM, the “cytotoxicity, U266B1 cell line, free F7” value [13] was “unable to cause cytotoxicity” and the IC50 [14] was 84.7 nM. The IC50 [15] was 15.9 nM.
